Calls of active or inactive are those of the source. The rule behind the calls is not given here.

The source of these data is ChEMBL document CHEMBL5608184, “Discovery and mechanistic insights into thieno[3,2-d]pyrimidine and heterocyclic fused pyrimidines inhibitors targeting tubulin for cancer therapy” (Eur J Med Chem, 2024).

The target in one assay is Tubulin (Homo sapiens) (UniProt P68371+Q9H4B7+P0DPH7+P68366+Q13509+Q71U36+P04350+Q3ZCM7+P07437+P68363+Q9BQE3+Q6PEY2+Q13885+Q9BVA1+Q9BUF5). In words: Inhibition of tubulin polymerization in human SK-OV-3 assessed as disruption of microtubule organization at 2 nM incubated for 24 hrs by immunofluorescence based analysis. The class given is cell-based.
The next assay relates to HCC827. In words: Antiproliferative activity against human HCC827 cells incubated for 48 hrs by CCK8 assay. To be noted: HCC827, 48 h. The assay is classed as functional, cell-based. (Formazan colour is commonly taken as a measure of viable cells.)
Another assay deals with A2780. Kind of assay: Antiproliferative activity against human A2780 cells incubated for 48 hrs by CCK8 assay. The assay is classed as functional, cell-based. Particulars: A2780, 48 h.
The nature of assay [1]: Antiproliferative activity against Paclitaxel-resistant human A2780 cells incubated for 48 hrs by CCK8 assay. To be noted: Paclitaxel-resistant A2780, 48 h. The class given is functional, cell-based.
In a further assay the test system is SK-OV-3. Kind of assay: Antiproliferative activity against human SK-OV-3 cells incubated for 48 hrs by CCK8 assay. The class given is functional, cell-based. To be noted: SK-OV-3, 48 h.
The next assay relates to A549. Kind of assay: cells. To be noted: Homo sapiens, A549, 48 h.
The species entered for a further assay is Sus scrofa. Kind of assay: Inhibition of porcine brain tubulin polymerization at 10 uM measured for 60 min by fluorescence based assay.

Description for A549: Antiproliferative activity against human A549 cells incubated for 48 hrs by CCK8 assay

For `CC(=O)O[C@H]1C(=O)[C@@]2(C)[C@H]([C@H](OC(=O)c3ccccc3)[C@]3(O)C[C@H](OC(=O)[C@H](O)[C@@H](NC(=O)c4ccccc4)c4ccccc4)C(C)=C1C3(C)C)[C@]1(OC(C)=O)CO[C@@H]1C[C@@H]2O` [PACLITAXEL], the inhibition result on Tubulin (Homo sapiens) and in the assay listed under Sus scrofa was “inactive” in each case. Moreover, the IC50 with HCC827 was determined as 1.25 nM; in the assay with A2780 it was 1.31 nM; in assay [1], 3820 nM; in the assay on SK-OV-3, 1.19 nM; in the assay on A549, 3.12 nM.

A word on the IC50: it is the concentration at which inhibition is half-maximal. A higher IC50 goes with weaker potency in that assay.
